Entries after “also recorded” stand apart in the source; their conditions may differ.
Tests used:
[1] = test system: P. falciparum; assay: Intravenous BrEA malaria patient trial; format: in vivo; conditions: day 14, two patients
Method: Response to drug treatment was graded as per World Health Organization criteria (WHO 1973) in infected patients. Evaluation of therapeutic response was determined using the parasitic and fever clearance times. […]
Microscopy. […] Parasitemia was quantified in thin films by counting 2000 red blood cells in clear contiguous fields and finding the proportion that was parasitized. In thick films, parasitemia was quantified by counting parasites against leukocytes. […] Approximately 5000 erythrocytes were counted in clear contiguous fields 24 and 48 h after incubation of blood obtained at each time point and graded for maturity into tiny rings, small rings, large rings, pigmented trophozoites and schizonts. […]
Calculation of Parameters. […] Parasitemia quantification and clinical examination were done once every 6 hours for the first 72 hours, followed by daily assessment of the parameters up to day 7 (168 hrs) and thereafter on day 14.
Blood films were Giemsa-stained and parasitemia quantification was done in thick films by counting 2000 parasites against leukocytes, and the thin films by finding the proportion of infected red blood cells. […]

[2] = test system: HIV infected patients with chronic diarrhea; assay: Treatment of chronic diarrhea in HIV infected patients; format: in vivo, human; conditions: two HIV infected patients, 60 mg s.c. daily for 10 days, during the period of dosing
Method: Two HIV infected patients with chronic diarrhea were dosed with BrEA as follows. A BrEA formulation (40 mg/mL BrEA in 25% v/v PEG 300, 12.5% v/v ethanol, 5% v/v benzyl benzoate, ˜57.5% v/v propylene glycol) was delivered subcutaneously. The patients received 60 mg of BrEA in 1.5 mL daily for 10 days. […] After the 10-day dosing period ended, diarrhea resumed. In other patients receiveing oral BrEA, diarrhea also went into remission.

[3] = Pharmacokinetics of BrEA after subcutaneous dose in rabbits; format: in vivo
Method: The nonaqueous BrEA formulation of example 1 was administered as a single subcutaneous dose to rabbits. […] The circulating half-life of the drug in the plasma was about twelve hours.
A pharmacokinetic analysis of ^14C BrEA was conducted in New Zealand White rabbits. Twenty μCi of ^14C 16α-bromo-3-beta-hydroxy-5α-[4-^14C]-androstan-17-one (50 mCi/mmole) plus 1 mg/kg unlabeled BrEA was administered to each of three New Zealand White rabbits as a subcutaneous injection in the scapular region using an injection volume of 1 mL/kg. The drug was formulated in 25% polyethylene glycol 300, 12.5% absolute ethanol, 5% benzyl benzoate, and qs with propylene glycol. Blood samples were taken at 0.5, 1, 2, 4, 8, 12, 24 hours for all three animals, and at 48 hours for two of the animals. Twenty-four and 48 hours after administration, one and two animals respectively, were sacrificed, and the following organs/tissues were collected: brain, heart, kidneys, liver, lungs, skeletal muscle, spleen, and injection site muscle and skin. In addition to the organs and tissues, urine and feces were collected as well as the cage wash.
The average percentages of the administered dose in whole blood was calculated by multiplying the concentration of drug in whole blood by the assumed volume of blood in the animals, 200 mL. The amount of drug in the blood reaches a maximum at around 8 hours, and a small amount was still evident at 48 hours.

[4] = Animal 201, 24 hours, 1 mg/kg s.c.
[5] = Animal 301, 48 hours, 1 mg/kg s.c.
[6] = Animal 301, 48 hours, sample wt. 6 g
[7] = Animal 302, 48 hours, 1 mg/kg s.c.

Compound: C[C@]12CC[C@H](O)C[C@@H]1CC[C@@H]1[C@@H]2CC[C@]2(C)C(=O)[C@H](Br)C[C@@H]12 [BrEA, 16α-bromo-3β-hydroxy-5α-androstane-17-one]
- parasite clearance rate [1]: 100%
- effect on chronic diarrhea [2]: the diarrhea ceased
- Percentage of Drug in Organs: Brain [3, 4]: 0.005%
- Percentage of Drug in Organs: Heart [3, 4]: 0.008%
- Percentage of Drug in Organs: Kidneys [3, 4]: 0.155%
- Percentage of Drug in Organs: Liver [3, 4]: 0.76%
- Percentage of Drug in Organs: Lungs [3, 4]: 0.029%
- Percentage of Drug in Organs: Spleen [3, 4]: 0.002%
- Percentage of Drug in Organs: Skeletal muscle ([3]; Animal 201, 24 hours, sample wt. 3.8 g): 0.002%
- Percentage of Drug in Organs: Skin ([3]; Animal 201, 24 hours, sample wt. 8 g): 0.008%
- Percentage of Drug in Organs: Brain [3, 5]: 0.002%
- Percentage of Drug in Organs: Heart [3, 5]: 0.003%
- Percentage of Drug in Organs: Kidneys [3, 5]: 0.055%
- Percentage of Drug in Organs: Liver [3, 5]: 0.145%
- Percentage of Drug in Organs: Lungs [3, 5]: 0.019%
- Percentage of Drug in Organs: Spleen [3, 5]: 0%
- Percentage of Drug in Organs: Skeletal muscle [3, 6]: 0%
- Percentage of Drug in Organs: Skin [3, 6]: 0.002%
- Percentage of Drug in Organs: Brain [3, 7]: 0%
- Percentage of Drug in Organs: Heart [3, 7]: 0.002%
- Percentage of Drug in Organs: Kidneys [3, 7]: 0.050%
- Percentage of Drug in Organs: Liver [3, 7]: 0.125%
- Percentage of Drug in Organs: Lungs [3, 7]: 0.011%
- Percentage of Drug in Organs: Spleen [3, 7]: 0%
- Percentage of Drug in Organs: Skeletal muscle ([3]; Animal 302, 48 hours, sample wt. 5 g): 0%
- Percentage of Drug in Organs: Skin ([3]; Animal 302, 48 hours, sample wt. 9 g): 0.004%
- time of maximum amount of drug in whole blood ([3]; rabbits, 1 mg/kg s.c.): around 8 hours
- drug in the liver ([3]; rabbits, 1 mg/kg s.c., 24 hours): approximately 0.8 % of the injected dose
- drug in the liver ([3]; rabbits, 1 mg/kg s.c., 48 hours): ~0.12 % of the injected dose
- drug in the liver, average ([3]; rabbits, 1 mg/kg s.c., average printed after the 48 hours value): 0.13%
- accumulation in organs ([3]; rabbits, s.c. dose): did not accumulate to a significant extent in any major organ; also recorded: did not accumulate to a significant degree in any of the organs
- route of excretion ([3]; rabbits, s.c. dose): primarily excreted in the urine
- circulating half-life of the drug in the plasma ([3]; rabbits, single s.c. dose): about twelve
- maximum concentration in the plasma ([3]; rabbits, single s.c. dose, at eight to twelve hours post administration): about 1.2 % of the injected dose
- drug left the injection site ([3]; rabbits, single subcutaneous dose, formulation of example 1, within 24 hours): More than 90%

Source: patent publication US20070275936A1, “Formulations and Treatment Methods” (priority 1998, published 2007)
